Consider eight compounds from ChEMBL document CHEMBL1201862, “PubChem BioAssay data set” (2004).

One experiment has as its target Kallikrein-7 (Homo sapiens, UniProt P49862). Kind of experiment: Fluorescence Intensity-based biochemical primary high throughput dose response assay to identify activators of kallikrein-7 (K7) zymogen.
A short description of experiment [1]: viability of HCT116 lacking mutant beta-catenin – cell-based, human colon tumor, dose response (AID 1045).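 Note: HCT116 colon tumor cells with beta catenin knocked out; cells exposed to compound for 60 hours.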 Format: functional.
The nature of experiment [2]: viability of PTEN-deleted HCT116 cells – cell-based, HCT116 PTEN knockout, dose response (AID 1047).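 Note: HCT116 colon tumor cells with PTEN knocked out; cells exposed to compound for 60 hours before readout; potency for loss of cell viability measured by luminescence.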 Format: functional.
The next experiment has as its target Ephrin type-A receptor 4 (Mus musculus, UniProt Q03137). Kind of experiment: EphA4 ligand-binding antagonists – biochemical, colorimetric, mouse EphA4, primary screen (AID 689). The format is functional.
For a further experiment, the target named is Caspase-6 (Homo sapiens, UniProt P55212). Kind of experiment: inhibition of CASP6 peptide cleavage – biochemical, VEID-R110 fluorescence, cherry-pick, dose response (AID 720632).
Chain of Caspase-6 (P55212 24-179 limits assumed): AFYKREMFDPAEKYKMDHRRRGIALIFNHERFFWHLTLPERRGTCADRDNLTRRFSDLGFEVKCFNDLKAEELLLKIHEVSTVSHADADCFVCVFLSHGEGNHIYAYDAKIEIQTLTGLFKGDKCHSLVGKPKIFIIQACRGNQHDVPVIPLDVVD
Chain of Caspase-6 (P55212 194-293 limits assumed): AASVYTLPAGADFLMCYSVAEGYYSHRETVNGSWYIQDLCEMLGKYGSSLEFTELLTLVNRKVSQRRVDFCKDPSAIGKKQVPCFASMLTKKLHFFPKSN
The target of experiment [3] is T1, RNA-binding protein pos-1 (Caenorhabditis elegans, UniProt G5EF15).
T1 sequence (G5EF15 whole entry): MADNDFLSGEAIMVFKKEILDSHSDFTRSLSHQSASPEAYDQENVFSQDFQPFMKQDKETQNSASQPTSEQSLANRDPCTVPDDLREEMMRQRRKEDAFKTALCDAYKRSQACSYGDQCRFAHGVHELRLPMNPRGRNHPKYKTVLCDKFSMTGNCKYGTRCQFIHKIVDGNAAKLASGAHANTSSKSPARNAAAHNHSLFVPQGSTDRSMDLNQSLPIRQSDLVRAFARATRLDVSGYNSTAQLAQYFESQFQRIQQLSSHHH
Kind of experiment: disruptors of C. elegans POS-1 RNA interaction – biochemical, fluorescence polarization, dose response (AID 1964).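 Note: purified POS-1 fused to maltose binding protein made in E. coli; potency of compounds blocking POS-1 binding to fluorescent RNA.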

Experiment [4] concerns the target T2, Zinc finger protein mex-5 (Caenorhabditis elegans, UniProt Q9XUB2).
T2 sequence (Q9XUB2 whole entry): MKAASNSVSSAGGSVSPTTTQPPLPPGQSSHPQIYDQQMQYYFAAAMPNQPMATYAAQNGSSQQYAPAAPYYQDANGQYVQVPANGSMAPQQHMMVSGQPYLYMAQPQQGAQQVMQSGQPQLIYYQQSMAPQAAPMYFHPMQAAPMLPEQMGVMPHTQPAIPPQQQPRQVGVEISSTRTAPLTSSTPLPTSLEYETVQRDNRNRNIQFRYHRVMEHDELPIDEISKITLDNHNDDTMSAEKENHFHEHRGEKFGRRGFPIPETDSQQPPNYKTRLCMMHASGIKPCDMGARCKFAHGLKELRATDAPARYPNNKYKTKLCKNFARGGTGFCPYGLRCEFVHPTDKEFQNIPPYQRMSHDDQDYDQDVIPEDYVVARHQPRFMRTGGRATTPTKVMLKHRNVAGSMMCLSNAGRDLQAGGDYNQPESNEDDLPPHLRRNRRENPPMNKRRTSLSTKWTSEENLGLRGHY
Kind of experiment: potency of MEX-5 RNA-binding blockers – biochemical, C. elegans, fluorescence polarization, dose response (AID 1960).

Experiment [5] is described as follows: M. tuberculosis growth inhibition, HTS (AID 449762). The format is functional.
The next experiment deals with Cytochrome P450 3A4 (Homo sapiens, UniProt P08684). To be noted: Potency.
Chain of Cytochrome P450 3A4 (P08684 whole entry): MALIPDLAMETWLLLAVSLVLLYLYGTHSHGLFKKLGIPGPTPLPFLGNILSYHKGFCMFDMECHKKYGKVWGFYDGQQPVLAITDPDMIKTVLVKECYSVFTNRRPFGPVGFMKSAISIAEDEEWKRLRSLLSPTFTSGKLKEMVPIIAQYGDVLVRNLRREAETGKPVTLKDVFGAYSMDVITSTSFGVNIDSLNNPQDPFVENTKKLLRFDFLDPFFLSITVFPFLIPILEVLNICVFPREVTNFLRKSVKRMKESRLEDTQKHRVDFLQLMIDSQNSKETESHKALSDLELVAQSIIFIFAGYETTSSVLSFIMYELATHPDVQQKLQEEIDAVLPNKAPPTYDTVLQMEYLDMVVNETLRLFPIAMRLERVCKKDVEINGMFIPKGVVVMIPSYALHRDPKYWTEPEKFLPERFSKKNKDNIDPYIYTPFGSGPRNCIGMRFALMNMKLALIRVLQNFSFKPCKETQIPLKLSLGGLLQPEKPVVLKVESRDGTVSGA
Experiment [6] can be described thus: microbe, parasite or virus in culture. The format is functional. The settings on record: Mycobacterium tuberculosis.
The nature of experiment [7]: blockade of melanocortin 4 receptor signaling – cell-based, plate reader, cherry pick, counter-screen for LGR2 antagonist project, dose response (AID 743444).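 Note: transfected HEK 293 cells stimulated with alpha-MSH peptide; potency of inhibitors of the alpha-MSH evoked signal.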 Format: functional.
A short description of experiment [8]: blockers of bursicon-stimulated LGR2 cAMP reporter – cell-based, HEK293, CRE-luciferase reporter, cherry pick, set 2, dose response (AID 743343).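 Note: transfected cells were stimulated with diluted bursicon conditioned medium after compound addition.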 Format: functional.
A short description of experiment [9]: HIV-1 AD8 envelope cell-cell fusion blockers – cherry-pick, dose response (AID 652062).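 Note: luciferase signal from cell-cell fusion driven by HIV-1 clade B AD8 Env; potency is for inhibitors of fusion seen as a drop in luminescence.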 Format: functional, cell-based.
Experiment [10] can be described thus: blockers of HIV-1 envelope-mediated cell-cell fusion – cherry-pick, dose response (AID 652057). The format is functional, cell-based.
Experiment [11] is described as follows: off-target signal loss in HeLa-CEM21 co-culture – HeLa F-luc CTL cells, cherry-picked, counter-screen for HIV-1 Env fusion inhibitor project, dose response (AID 652040).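 Note: potency for signal decrease marking cytotoxic or nonspecific inhibition.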 The format is functional, cell-based.
Experiment [12] can be described thus: blockers of HIV-1 ZM109 envelope-driven cell-cell fusion – HeLa effector, CEM target cells, luciferase, cherry-pick, dose response (AID 652058).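 Note: luciferase signal from HIV-1 Env mediated cell-cell fusion of effector and target cells.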 The format is functional, cell-based.
Experiment [13] has as its target T3, Orexin receptor type 2 (Homo sapiens, UniProt O43614).
T3 sequence (O43614 whole entry): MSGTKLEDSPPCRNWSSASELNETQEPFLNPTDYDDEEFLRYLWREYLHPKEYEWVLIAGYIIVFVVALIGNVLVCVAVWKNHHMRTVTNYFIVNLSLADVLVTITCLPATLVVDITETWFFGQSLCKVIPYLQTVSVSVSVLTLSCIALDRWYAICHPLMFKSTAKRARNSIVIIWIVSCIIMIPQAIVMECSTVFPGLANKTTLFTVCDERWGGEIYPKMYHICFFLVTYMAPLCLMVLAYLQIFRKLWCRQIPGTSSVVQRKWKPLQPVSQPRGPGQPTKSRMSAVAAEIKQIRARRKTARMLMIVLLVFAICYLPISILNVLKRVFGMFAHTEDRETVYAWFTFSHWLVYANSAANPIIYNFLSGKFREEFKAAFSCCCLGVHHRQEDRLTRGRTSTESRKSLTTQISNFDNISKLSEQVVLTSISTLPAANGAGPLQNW
Kind of experiment: Counterscreen assay for antagonists of the orexin 1 receptor (OX1R; HCRTR1): Fluorescence-based cell-based dose response assay for antagonists of the orexin 2 receptor (OX2R; HCRTR2), run by assay provider. The format is functional.

In experiment [14] the target is T3, Orexin receptor type 2. Kind of experiment: Counterscreen assay for antagonists of the orexin 1 receptor (OX1R; HCRTR1): Homogeneous Time Resolved Fluorescence (HTRF)-based cell-based dose response assay for antagonists of the orexin 2 receptor (OX2R; HCRTR2), run by assay provider. The format is functional.
The nature of experiment [15]: Counterscreen for antagonists of the orexin 1 receptor (OX1R; HCRTR1): Fluorescence-based cell-based high throughput dose response assay to identify antagonists of the parental CHO cell line. [Related pubchem assays (depositor defined):AID434989, AID435008, AID463079, AID485270, AID492963, AID492964, AID492965, AID493232, AID504699, AID504701]. The format is functional.

In experiment [16] the target is T4, Orexin/Hypocretin receptor type 1 (Homo sapiens, UniProt O43613).
T4 sequence (O43613 whole entry): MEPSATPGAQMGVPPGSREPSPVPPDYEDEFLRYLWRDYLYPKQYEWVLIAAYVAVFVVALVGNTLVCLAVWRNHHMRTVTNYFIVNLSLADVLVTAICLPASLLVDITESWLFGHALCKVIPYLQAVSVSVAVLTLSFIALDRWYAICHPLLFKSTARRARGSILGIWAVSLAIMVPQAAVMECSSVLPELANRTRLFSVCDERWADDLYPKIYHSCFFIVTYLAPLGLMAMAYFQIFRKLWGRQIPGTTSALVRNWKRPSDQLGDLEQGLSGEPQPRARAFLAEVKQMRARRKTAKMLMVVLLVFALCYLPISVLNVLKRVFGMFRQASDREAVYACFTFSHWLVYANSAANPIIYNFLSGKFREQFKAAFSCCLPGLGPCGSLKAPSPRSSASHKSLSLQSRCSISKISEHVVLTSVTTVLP
Kind of experiment: Fluorescence-based cell-based high throughput dose response assay for antagonists of the orexin 1 receptor (OX1R; HCRTR1). [Related pubchem assays (depositor defined):AID434989, AID435008, AID463079, AID485270, AID492963, AID492964, AID492965, AID493232, AID504717, AID504718]. The format is functional.

Experiment [17] deals with T5, Oxysterols receptor LXR-beta (Homo sapiens, UniProt P55055).
T5 sequence (P55055 whole entry): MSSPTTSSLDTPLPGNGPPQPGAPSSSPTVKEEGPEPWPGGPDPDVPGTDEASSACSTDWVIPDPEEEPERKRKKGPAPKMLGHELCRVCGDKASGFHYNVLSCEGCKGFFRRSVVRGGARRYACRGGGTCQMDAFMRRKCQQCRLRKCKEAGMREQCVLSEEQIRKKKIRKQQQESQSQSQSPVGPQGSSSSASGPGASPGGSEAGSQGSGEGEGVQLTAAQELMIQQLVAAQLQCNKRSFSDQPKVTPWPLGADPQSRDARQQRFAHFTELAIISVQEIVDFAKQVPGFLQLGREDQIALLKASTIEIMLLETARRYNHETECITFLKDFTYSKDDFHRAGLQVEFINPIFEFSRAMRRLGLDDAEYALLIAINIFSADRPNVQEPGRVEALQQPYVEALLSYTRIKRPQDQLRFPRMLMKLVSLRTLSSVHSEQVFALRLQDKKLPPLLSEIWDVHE
Format: functional, cell-based.

A further experiment has as its system CHO-K1. In words: Counterscreen for antagonists of the orexin 1 receptor (OX1R; HCRTR1): Homogeneous time resolved fluorescence (HTRF)-based cell-based dose response assay to identify antagonists of the parental CHO-K1 cell line. [Related pubchem assays (depositor defined):AID434989, AID435008, AID463079, AID485270, AID492963, AID492964, AID492965, AID493232, AID504699, AID504701]. The format is functional. The settings on record: Cricetulus griseus.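 Note: potency for inhibition of ATP-stimulated IP1 production as antagonists.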

Experiment [18] addresses T4, Orexin/Hypocretin receptor type 1. In words: Homogeneous Time Resolved Fluorescence (HTRF)-based cell-based high throughput dose response assay for antagonists of the orexin 1 receptor (OX1R; HCRTR1). [Related pubchem assays (depositor defined):AID434989, AID435008, AID463079, AID485270, AID492963, AID492964, AID492965, AID493232, AID504717, AID504718]. The format is functional.

Structures are written as SMILES. The source made the active and inactive calls.

Chain of Ephrin type-A receptor 4 (Q03137 whole entry): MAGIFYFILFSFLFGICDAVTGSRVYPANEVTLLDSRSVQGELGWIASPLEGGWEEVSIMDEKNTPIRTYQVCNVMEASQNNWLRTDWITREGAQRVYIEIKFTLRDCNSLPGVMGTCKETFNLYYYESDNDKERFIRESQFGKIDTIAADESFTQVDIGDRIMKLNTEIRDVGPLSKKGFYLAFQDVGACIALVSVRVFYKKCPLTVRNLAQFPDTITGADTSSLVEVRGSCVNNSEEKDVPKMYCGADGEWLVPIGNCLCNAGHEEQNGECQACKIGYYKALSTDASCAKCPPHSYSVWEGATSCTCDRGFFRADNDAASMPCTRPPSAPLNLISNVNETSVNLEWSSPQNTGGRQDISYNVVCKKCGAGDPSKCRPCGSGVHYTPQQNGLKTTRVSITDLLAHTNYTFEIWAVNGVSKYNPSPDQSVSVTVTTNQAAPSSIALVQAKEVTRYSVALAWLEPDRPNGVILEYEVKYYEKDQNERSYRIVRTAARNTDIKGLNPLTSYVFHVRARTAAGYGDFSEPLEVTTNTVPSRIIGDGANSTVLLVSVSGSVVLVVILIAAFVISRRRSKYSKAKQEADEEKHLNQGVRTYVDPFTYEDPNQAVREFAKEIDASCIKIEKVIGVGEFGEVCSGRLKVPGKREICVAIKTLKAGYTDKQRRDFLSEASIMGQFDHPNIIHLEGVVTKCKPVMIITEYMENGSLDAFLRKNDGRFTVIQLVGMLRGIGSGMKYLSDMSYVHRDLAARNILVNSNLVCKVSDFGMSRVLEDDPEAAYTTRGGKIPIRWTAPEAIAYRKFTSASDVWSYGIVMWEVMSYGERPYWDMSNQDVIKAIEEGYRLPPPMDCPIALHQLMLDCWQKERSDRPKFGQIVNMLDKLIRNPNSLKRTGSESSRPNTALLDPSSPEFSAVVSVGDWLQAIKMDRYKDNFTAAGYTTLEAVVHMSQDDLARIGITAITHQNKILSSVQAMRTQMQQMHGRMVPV
Chain of Kallikrein-7 (P49862 whole entry): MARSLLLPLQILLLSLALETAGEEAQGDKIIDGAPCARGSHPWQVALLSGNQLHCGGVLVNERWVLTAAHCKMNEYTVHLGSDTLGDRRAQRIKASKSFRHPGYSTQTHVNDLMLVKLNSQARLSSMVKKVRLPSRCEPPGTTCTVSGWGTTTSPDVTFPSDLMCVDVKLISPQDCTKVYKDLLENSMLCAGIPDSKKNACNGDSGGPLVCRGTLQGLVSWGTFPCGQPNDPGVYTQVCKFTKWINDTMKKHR

On to `COCCNC(=O)/C(C#N)=C/c1c(N2CCN(c3ccc(OC)cc3)CC2)nc2c(C)cccn2c1=O`, for which the EC50 on Kallikrein-7 was > 69.5 µM (inactive).
Turning to `O=C(Nc1cccc2c1CCCC2)c1cc([N+](=O)[O-])ccc1Cl`, the EC50 in experiment [1] was 6.84 µM (active); in experiment [2], 7.64 µM (active). Moreover, the IC50 at Ephrin type-A receptor 4 was > 100 µM (not active).
Take `CCOc1cc(N2CCOCC2)c(OCC)cc1NC(C)C(=O)N1CCN(CC)CC1` (stereo not given): at Caspase-6, the AC50 is 46.7 µM (active). For the same compound, the EC50 in experiment [3] was 82.7 µM (active); in experiment [4], > 300 µM (inconclusive).
Turning to `COC(=O)c1cccc(C#CC(NP(=O)(c2ccccc2)c2ccccc2)c2ccccc2)c1` (stereo not given), the IC50 in experiment [5] is > 100 µM (active). Moreover, the AC50 on Cytochrome P450 3A4 is 12.6 µM (inconclusive). The CC50 in [6] is > 40 µM (active).
`CCCOc1ccc(-c2nn(-c3ccccc3)cc2/C=C2\SC(=S)N(C3CCS(=O)(=O)C3)C2=O)cc1` (stereo not given): the half-maximal inhibitory concentration (IC50) on Ephrin type-A receptor 4 was 12 µM (active).
`O=C(NCCc1ccccc1)c1ccc2c(c1)OCO2`: the AC50 in [7] was 2.88 µM (active); in experiment [8], 2.31 µM (active).
Take `COc1cccc(Cl)c1NC(=O)N1CCc2c([nH]c3ccccc23)C1C(F)(F)F` (stereo not given): the AC50 in experiment [9] is 36.8 µM (active); in experiment [10] it was 4.56 µM (active); in experiment [11] it was 2.65 µM (active); in [12] it was 15 µM (active).
Take `Nn1c(-c2cccs2)nc2sc3c(c2c1=O)CCCC3`: the IC50 at Orexin receptor type 2 [13] is 31.2 µM (inactive); on Orexin receptor type 2 [14], > 50 µM (inactive); in experiment [15] it was > 49.7 µM (inactive); in experiment [16], 18.1 µM (inactive); in the experiment on CHO-K1, > 66.2 µM (inactive); in experiment [18], 2.98 µM (active). Besides, the EC50 (in experiment [17]; in “cells”) was > 67.5 µM (inactive) throughout.
